*1 amine or outer side, *2 acyl side, *3 side chain or, on linkers, in order; H or OH if unused. Where a SMILES comes first, the peptide text is derived from it. Bridges are numbered along the chain shown (N, C = ends). [ ]: non-standard residue; d: D form. The star is where a group is joined. X1 = CC(C)(CC(=O)[*:1])S[*:2]; NH(CH2)4NH2 = NCCCCN*; Mpa = O=C(O)CCS
Assays:
[1] = target: T1, V1 -vasopressin receptors (Rattus norvegicus, UniProt P30560); experiment: Reversal of vasopressin-induced contraction of rat thoracic aorta tissue; type: cell-based; conditions: rat aortic ring tissue
T1 construct: Rat liver membrane; from tissue; host or cells: rat liver plasma membranes
T1 sequence (P30560 whole entry): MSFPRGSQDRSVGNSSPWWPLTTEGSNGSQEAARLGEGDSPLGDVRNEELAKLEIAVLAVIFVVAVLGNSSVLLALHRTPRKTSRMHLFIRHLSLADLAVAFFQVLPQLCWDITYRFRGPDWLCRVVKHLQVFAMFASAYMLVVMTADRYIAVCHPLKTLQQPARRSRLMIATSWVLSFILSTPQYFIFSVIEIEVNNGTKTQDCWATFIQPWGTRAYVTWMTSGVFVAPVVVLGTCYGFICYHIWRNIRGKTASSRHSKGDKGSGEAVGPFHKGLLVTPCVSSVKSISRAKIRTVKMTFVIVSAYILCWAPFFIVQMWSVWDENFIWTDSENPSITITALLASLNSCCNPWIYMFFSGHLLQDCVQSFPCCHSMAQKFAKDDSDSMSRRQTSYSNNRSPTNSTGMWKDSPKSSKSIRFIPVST
Method: (§1) Antagonistic activity at the V1 -vasopressin receptors is determined in a protocol which measures the reversal of the vasopressin-induced contraction of rat thoracic aorta tissue. This is expressed as KB (nM) in the table below. Such anti-pressor activity is confirmed in a similar in vitro protocol using binding to the plasma membranes of rat liver. V2 -vasopressin antagonism is determined as receptor binding ability measured by inhibition of 3H-LVP binding (KB as nM), by inhibition of adenylate cyclase activation by vasopressin in the medullary tissue of hog kidneys (Ki as nM) or in vivo in the hydropenic rat protocol (ED300 μg/kg. These procedures are described in the literature: F. Stassen et al., J. Pharmacology and Experimental Therapeutics, 223 50 (1982); F. Stassen et al., lst International Conference on Diuretics, Miami, Fla., Mar. (1984). Antagonistic activity at oxytocin receptors is determined in the isolated rat uterus protocol: W. Sawyer, et al., Endocrinology 106 81 (1979); P. Melin, et al., J. of Endocrinology 88 173 (1981).
^c Rat aortic ring tissue, […]

oxytocin receptors = target: T2, oxytocin receptors (Rattus norvegicus, UniProt P70536); experiment: Isolated rat uterus protocol, oxytocin antagonism; type: cell-based; conditions: read-out: Rat OXT KB
T2 construct: Rat uterus; from tissue; host or cells: isolated rat uterus
T2 sequence (P70536 1-388): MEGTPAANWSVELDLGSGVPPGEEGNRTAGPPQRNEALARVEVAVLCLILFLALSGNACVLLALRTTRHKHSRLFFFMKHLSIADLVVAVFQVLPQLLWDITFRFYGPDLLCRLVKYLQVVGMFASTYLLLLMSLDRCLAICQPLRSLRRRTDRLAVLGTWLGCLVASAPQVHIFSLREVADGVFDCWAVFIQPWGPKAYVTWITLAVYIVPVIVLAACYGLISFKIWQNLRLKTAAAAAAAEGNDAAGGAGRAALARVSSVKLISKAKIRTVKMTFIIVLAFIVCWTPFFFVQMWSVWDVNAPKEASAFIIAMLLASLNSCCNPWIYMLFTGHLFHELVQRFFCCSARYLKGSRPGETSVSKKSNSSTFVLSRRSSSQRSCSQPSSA
Method: as §1

[2] = target: T3, V2 -vasopressin receptors (Sus scrofa, UniProt P32307); experiment: V2-vasopressin receptor binding, inhibition of 3H-LVP binding, medullary pig kidney tissue
T3 construct: Medullary pig kidney tissue; from tissue; host or cells: medullary pig (hog) kidney tissue
T3 sequence (P32307 whole entry): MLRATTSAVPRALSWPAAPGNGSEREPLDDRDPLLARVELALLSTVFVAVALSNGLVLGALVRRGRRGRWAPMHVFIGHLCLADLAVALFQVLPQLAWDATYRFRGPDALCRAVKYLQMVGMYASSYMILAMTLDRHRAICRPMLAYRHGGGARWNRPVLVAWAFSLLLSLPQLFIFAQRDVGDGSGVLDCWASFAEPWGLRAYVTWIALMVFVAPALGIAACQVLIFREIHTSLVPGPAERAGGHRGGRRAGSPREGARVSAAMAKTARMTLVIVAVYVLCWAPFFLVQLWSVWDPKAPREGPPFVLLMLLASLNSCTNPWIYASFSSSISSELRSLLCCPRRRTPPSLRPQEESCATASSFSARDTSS
Method: as §1
^a Medullary pig kidney tissue, […]

COc1ccc(C[C@@H]2NC(=O)CC(C)(C)SSC[C@@H](C(=O)N3CCC[C@H]3C(=O)NCCCCN)NC(=O)[C@H](CC(N)=O)NC(=O)[C@H](CCC(N)=O)NC(=O)[C@H](Cc3ccccc3)NC2=O)cc1 [A] (Y(Me)FQNCP-{NH(CH2)4NH2}; linker N-5 via X1)
Kb [1]: 1.21 nM | Kb (oxytocin receptors): 5.91 nM | Kb [2]: 8600 nM

CCOc1ccc(C[C@H]2NC(=O)CCSSC[C@@H](C(=O)N3CCC[C@H]3C(=O)NCCCCN)NC(=O)[C@H](CC(N)=O)NC(=O)[C@H]([C@@H](C)O)NC(=O)[C@H]([C@@H](C)CC)NC2=O)cc1 [C] ([Mpa][dY](Et)ITNCP-{NH(CH2)4NH2}; disulfide 1-6)
Kb (oxytocin receptors): 1.6 nM | Kb [2]: 5700 nM

CCOc1ccc(C[C@@H]2NC(=O)CCSSC[C@@H](C(=O)N[C@@H](CCCNC(=N)N)C(=O)NCC(N)=O)NC(=O)[C@H](CC(N)=O)NC(=O)[C@H]([C@@H](C)O)NC(=O)[C@H]([C@@H](C)CC)NC2=O)cc1 [D] ([Mpa]Y(Et)ITNCRG-NH2; disulfide 1-6)
Kb (oxytocin receptors): 17.7 nM | Kb [2]: 4100 nM

CCOc1ccc(C[C@@H]2NC(=O)CCSSC[C@@H](C(=O)N[C@@H](CCCNC(=N)N)C(N)=O)NC(=O)[C@H](CC(N)=O)NC(=O)[C@H]([C@@H](C)O)NC(=O)[C@H]([C@@H](C)CC)NC2=O)cc1 [E] ([Mpa]Y(Et)ITNCR-NH2; disulfide 1-6)
Kb (oxytocin receptors): 11.4 nM | Kb [2]: 1600 nM

— patent US4604378A, “Basic V1 -vasopressin antagonists” (SmithKline Beckman Corporation, priority 1984, dated 1986)
